Experimental data: patent US4814336A, “Method of treating a vascular obstructive lesion resulting from restricted blood circulation” (CHINOIN Gyogyszer es Vegyeszeti Termekek Gyara Rt, priority 1985, dated 1989)

Experiments:
[1] = test system: erythrocytes of patients with lower leg and cerebral obliterating vascular diseases; test: Erythrocyte filtrability (T1/2) of patients with lower leg and cerebral obliterating vascular diseases after 10 days treatment; type: in vivo, human patients; details: 450 mg/day orally; for T1/2 average of erythrocyte filtration after treatment: before treatment 18.15 min, healthy control 8.7 min
Experimental: (§1) The clinical examinations carried out on patients suffering from lower leg and cerebral obliterating vascular diseases gave the following results: 41 patients were treated for 10 days in a dose of 450 mg/day Depogen or Trental orally (beside 5 healthy controls).

[2] = test system: patients suffering from cerebral obliterating vascular diseases; test: ECHO examination; type: in vivo, human patients; details: 450 mg/day orally, 10 days; for ECHO deteriorated (number of patients) / ECHO improved (number of patients) / ECHO unchanged (number of patients): total 9 (Trental), 8 (Depogen)
Experimental: as §1

[3] = test system: erythrocytes; test: In vitro filtrability of erythrocytes (filtration half-time), statements on both erythrocyte types; type: cell-based, human; details: for filtrability of the erythrocytes (result in words): FIGS. 1 and 2, T1/2 decreased
Experimental: (§2) For the examination of the in vitro filtrability of the erythrocytes the method of Teitel (Nouv. Rev. Franc. Haematol. 7. 195 (1967)) was used where the filtration rate of concentrated erythrocyte suspension was measured. In the test fresh, normal erythrocytes, fresh in hyperosmotic solution shrunken erythrocytes and erythrocytes stored in CPD blood-conserving solution contracted for 30 days at +4° C. were used. The results are given in FIGS. 1 and 2 (the filtrability of the contracted erythrocytes and that of the erythrocytes stored for 30 days were given as the % of the filtrability of the control fresh, normal erythrocytes.)
(§3) The effect depends in the case of both drugs on the doses. The optimal effect may be achieved with Depogen in lower concentration interval (0.5 to 1.5 μumol) than in case of Trental (5 to 10 μumoles).

[4] = test system: patients suffering from cerebral obliterating vascular diseases; test: EEG examination; type: in vivo, human patients; details: 450 mg/day orally, 10 days; for EEG deteriorated (number of patients) / EEG improved (number of patients) / EEG unchanged (number of patients): total 9 (Trental), 8 (Depogen)
Experimental: as §1

[5] = test system: erythrocytes stored for 30 days; test: In vitro filtrability (filtration half-time T1/2) of erythrocytes stored for 30 days, method of Teitel; type: cell-based, human; details: from ID50
Experimental: FIG. 2 is a set of two graphs in which the filtration half-time (T1/2) for erythrocytes stored for 30 days are plotted along the Y-axis as a percentage of the filtration half-time for normal erythrocytes (control) against doses of respectively Trental and Depogen.
as §2, §3

[6] = test system: patients suffering from lower leg obliterating vascular diseases; test: Clinical examination, lower leg obliteration; type: in vivo, human patients; details: 450 mg/day orally, 10 days; Depogen compared with Trental
Experimental: as §1

[7] = test system: patients suffering from cerebral obliterating vascular diseases; test: Clinical examination, cerebral obliterating vascular disease, symptoms; type: in vivo, human patients; details: 450 mg/day orally, 10 days
Experimental: as §1

[8] = test system: extremital vascular resistence; details: patients, doses up to 300 mg/day; cited from earlier work
[9] = test system: contracted (shrunken) erythrocytes; test: In vitro filtrability (filtration half-time T1/2) of contracted (shrunken) erythrocytes, method of Teitel; type: cell-based, human; details: from ID50
Experimental: FIG. 1 is a set of two graphs in which the filtration half-times (T1/2) for contracted (shrunken) erythrocytes are plotted along the Y-axis as a percentage of the filtration half-time for normal erythrocytes (control) against doses of respectively Trental and Depogen.
as §2, §3

[10] = test system: erythrocytes; details: Angiology 36, 4, 226-234 (1985); cited from earlier work

Structure (SMILES) | filtrability of the erythrocytes after treatment (result in words) [1] | T1/2 average of erythrocyte filtration after treatment [1] [min] | ECHO unchanged (% of patients) [2] [%] | ECHO deteriorated (number of patients) [2] | ECHO improved (number of patients) [2] | ECHO unchanged (number of patients) [2] | filtrability of the erythrocytes (result in words) ([3]; in vitro) | EEG improved (% of patients) [4] [%] | EEG unchanged (% of patients) [4] [%] | EEG deteriorated (number of patients) [4] | EEG improved (number of patients) [4] | EEG unchanged (number of patients) [4] | effect in lower leg obliteration [6] | other results
CCOc1ccc(CC2=NCCc3cc(OCC)c(OCC)cc32)cc1OCC [Depogen, 1-(3',4'-diethoxybenzyl)-6,7-diethoxy-3,4-dihydroisoquinolinium-theophyllin-7-acetate] | the filtrability of the erythrocytes has been normalized | 9.53 | 87.5 | 0 | 1 | 7 | increase the filtrability of the erythrocytes significantly | 87.5 | 12.5 | 0 | 7 | 1 | the two drugs have the same effect | ECHO improved (% of patients) [2]: 12.5%; times lower concentration exerting the same effect as Trental ([3]; in vitro, concentration for the half-maximal effect): 10 to 25 times; optimal effect on filtrability, concentration interval ([3]; in vitro, Depogen): 0.5 to 1.5 μumol; filtrability of pathological human erythrocytes (result in words) ([3]; proved by both ex vitro and in vivo tests): increases the filtrability of the pathological human erythrocytes significantly; Rel. activity Depogen/Trental [5]: 31.6; effect in cerebral vascular disease, symptoms [7]: the symptoms have decreased; peripheral vasodilating effect and extremital vascular resistence [8]: has a peripheral vasodilating effect and decreases the extremital vascular resistence; Rel. activity Depogen/Trental [9]: 16.3
CC(=O)CCCCn1c(=O)c2c(ncn2C)n(C)c1=O [Trental, 3,7-dihydro-3,7-dimethyl-1--(5-oxohexyl)-1H-purine-2,6-dione, reference compound] | the treatment was also in this case successful | 12.1 | 100 | 0 | 0 | 9 | increase the filtrability of the erythrocytes significantly | 44.5 | 55.5 | 0 | 4 | 5 | the two drugs have the same effect | optimal effect on filtrability, concentration interval ([3]; in vitro, Trental): 5 to 10 μumoles; rheological parameters of the blood, plasticity of the erythrocytes [10]: improves some rheological parameters of the blood, first of all the plasticity of the erythrocytes
